According to the NIST ThermoML archive (doi:10.1021/je025657+):
“And” between values parts separate entries of the source, which are not always exact repeats. Equal entries are not always repeated.

COC(F)(F)C(F)(F)F [methyl pentafluoroethyl ether]
Conditions	mass density [kg/m3]
330 K, 2009.1 kPa, Liquid	1174.81
330 K, 2033.5 kPa, Liquid	1173.24
330 K, 2499.3 kPa, Liquid	1178.46
330 K, 3014.1 kPa, Liquid	1182.15
330 K, 3040.4 kPa, Liquid	1180.5
330 K, 3527.6 kPa, Liquid	1185.73
330 K, 4007.5 kPa, Liquid	1188.95
330 K, 4054 kPa, Liquid	1187.37
330 K, 4522.8 kPa, Liquid	1192.32
330 K, 5044.3 kPa, Liquid	1195.65
330 K, 5095.2 kPa, Liquid	1194.02
330 K, 5526.8 kPa, Liquid	1198.64
330 K, 6004.2 kPa, Liquid	1201.54
330 K, 6121.5 kPa, Liquid	1200.18
330 K, 6544.9 kPa, Liquid	1204.73
330 K, 7006.4 kPa, Liquid	1207.37
330 K, 7184 kPa, Liquid	1206.23
340 K, 72.2 kPa, Gas	3.93
340 K, 97.1 kPa, Gas	5.22
340 K, 106 kPa, Gas	5.76
340 K, 154.8 kPa, Gas	8.59
340 K, 198.1 kPa, Gas	11.09
340 K, 224.8 kPa, Gas	12.57
340 K, 295.9 kPa, Gas	17.05
340 K, 323.2 kPa, Gas	18.7
340 K, 396.6 kPa, Gas	23.61
340 K, 495.8 kPa, Gas	30.46
340 K, 596 kPa, Gas	38.08
340 K, 597.2 kPa, Gas	38.04
340 K, 707 kPa, Liquid	1124.67
340 K, 722.8 kPa, Liquid	1124.82
340 K, 1026.7 kPa, Liquid	1129.54
340 K, 1053.7 kPa, Liquid	1128.14
340 K, 1524.7 kPa, Liquid	1134.41
340 K, 1999.2 kPa, Liquid	1137.11
340 K, 2020.3 kPa, Liquid	1139.04
340 K, 2516 kPa, Liquid	1143.49
340 K, 3002.4 kPa, Liquid	1147.7
340 K, 3017 kPa, Liquid	1145.96
340 K, 3529.7 kPa, Liquid	1152.07
340 K, 3993.9 kPa, Liquid	1155.78
340 K, 4072.4 kPa, Liquid	1154.47
340 K, 4525.8 kPa, Liquid	1159.9
340 K, 5046.6 kPa, Liquid	1163.8
340 K, 5093 kPa, Liquid	1162.13
340 K, 5487.3 kPa, Liquid	1166.99
340 K, 6030.7 kPa, Liquid	1170.83
340 K, 6115.2 kPa, Liquid	1169.4
340 K, 6527.2 kPa, Liquid	1174.25
340 K, 7001.9 kPa, Liquid	1177.33
340 K, 7160.8 kPa, Liquid	1176.36
350 K, 71.4 kPa, Gas	3.8
350 K, 104.7 kPa, Gas	5.6
350 K, 129.8 kPa, Gas	6.86
350 K, 152.8 kPa, Gas	8.19
350 K, 222 kPa, Gas	12.14
350 K, 275 kPa, Gas	15.14
350 K, 319.9 kPa, Gas	17.93
350 K, 395 kPa, Gas	22.4
350 K, 455.2 kPa, Gas	26.4
350 K, 560.7 kPa, Gas	33.51
350 K, 777.4 kPa, Gas	50.08
350 K, 799.2 kPa, Gas	52.12
350 K, 902.4 kPa, Liquid	1084.92
350 K, 933 kPa, Liquid	1085.29
350 K, 1008.2 kPa, Liquid	1087.64
350 K, 1049.9 kPa, Liquid	1086.78
350 K, 1470.3 kPa, Liquid	1093.45
350 K, 2013.5 kPa, Liquid	1099.88
350 K, 2056.5 kPa, Liquid	1098.92
350 K, 2517.3 kPa, Liquid	1105.5
350 K, 3024.3 kPa, Liquid	1110.87
350 K, 3061.7 kPa, Liquid	1109.59
350 K, 3474.5 kPa, Liquid	1115.43
350 K, 4005.1 kPa, Liquid	1120.6
350 K, 4100.2 kPa, Liquid	1119.85
350 K, 4481.5 kPa, Liquid	1124.97
350 K, 4979.5 kPa, Liquid	1129.41
350 K, 5116.8 kPa, Liquid	1128.93
350 K, 5469.1 kPa, Liquid	1133.62
350 K, 5973.9 kPa, Liquid	1137.8
350 K, 6125.5 kPa, Liquid	1137.3
350 K, 6531.4 kPa, Liquid	1142.27
350 K, 6996.6 kPa, Liquid	1145.86
350 K, 7196.9 kPa, Liquid	1145.6
360 K, 45.3 kPa, Gas	2.31
360 K, 98.2 kPa, Gas	5.11
360 K, 137.2 kPa, Gas	7.1
360 K, 200.1 kPa, Gas	10.49
360 K, 231.4 kPa, Gas	12.2
360 K, 289.8 kPa, Gas	15.49
360 K, 334.5 kPa, Gas	18.07
360 K, 415.3 kPa, Gas	22.84
360 K, 477.9 kPa, Gas	26.77
360 K, 586.1 kPa, Gas	33.71
360 K, 670.7 kPa, Gas	39.54
360 K, 807.9 kPa, Gas	49.64
360 K, 915.4 kPa, Gas	58.53
360 K, 990.4 kPa, Gas	65.14
360 K, 1139.7 kPa, Liquid	1041.29
360 K, 1228 kPa, Liquid	1042.77
360 K, 1529.8 kPa, Liquid	1049.05
360 K, 2003.3 kPa, Liquid	1056.42
360 K, 2053.3 kPa, Liquid	1055.56
360 K, 2463 kPa, Liquid	1063.09
360 K, 2984.8 kPa, Liquid	1070.14
360 K, 3048.1 kPa, Liquid	1069.38
360 K, 3506.1 kPa, Liquid	1076.76
360 K, 4021.5 kPa, Liquid	1082.91
360 K, 4078.7 kPa, Liquid	1081.81
360 K, 4467.5 kPa, Liquid	1087.96
360 K, 5021.2 kPa, Liquid	1093.94
360 K, 5093.9 kPa, Liquid	1092.92
360 K, 5527.2 kPa, Liquid	1099.14
360 K, 5980.2 kPa, Liquid	1103.61
360 K, 6147.8 kPa, Liquid	1103.45
360 K, 6519.9 kPa, Liquid	1108.71
360 K, 6997.3 kPa, Liquid	1113.07
360 K, 7245.1 kPa, Liquid	1113.38
370 K, 71.6 kPa, Gas	3.44
370 K, 105.5 kPa, Gas	5.15
370 K, 120.9 kPa, Gas	6.04
370 K, 154.8 kPa, Gas	7.64
370 K, 176.6 kPa, Gas	8.92
370 K, 226.2 kPa, Gas	11.41
370 K, 256.7 kPa, Gas	13.19
370 K, 328.5 kPa, Gas	16.95
370 K, 370 kPa, Gas	19.53
370 K, 471.8 kPa, Gas	25.21
370 K, 527.2 kPa, Gas	28.67
370 K, 666.8 kPa, Gas	37.39
370 K, 737.9 kPa, Gas	42.35
370 K, 920.6 kPa, Gas	55.26
370 K, 1005.3 kPa, Gas	62.34
370 K, 1205.2 kPa, Gas	80.41
370 K, 1224.5 kPa, Gas	81.87
370 K, 1277.5 kPa, Gas	87.49
370 K, 1278.1 kPa, Gas	88.01
370 K, 1404.3 kPa, Liquid	992.2
370 K, 1431.7 kPa, Liquid	992.85
370 K, 1520 kPa, Liquid	995.4
370 K, 1998.7 kPa, Liquid	1006.05
370 K, 2031.8 kPa, Liquid	1006.03
370 K, 2519.7 kPa, Liquid	1016.39
370 K, 3015.7 kPa, Liquid	1025.26
370 K, 3042 kPa, Liquid	1024.99
370 K, 3496.9 kPa, Liquid	1033.2
370 K, 4012.1 kPa, Liquid	1041.13
370 K, 4077.7 kPa, Liquid	1041.14
370 K, 4515.8 kPa, Liquid	1048.28
370 K, 5031.9 kPa, Liquid	1055.14
370 K, 5127.4 kPa, Liquid	1055.31
370 K, 5527.5 kPa, Liquid	1061.36
370 K, 5982.5 kPa, Liquid	1066.79
370 K, 6112.9 kPa, Liquid	1067.19
370 K, 6526.3 kPa, Liquid	1072.95
370 K, 6886.1 kPa, Liquid	1076.82
370 K, 7213.4 kPa, Liquid	1079.13
380 K, 74.8 kPa, Gas	3.57
380 K, 110.1 kPa, Gas	5.3
380 K, 161.5 kPa, Gas	7.87
380 K, 235.9 kPa, Gas	11.67
380 K, 268.9 kPa, Gas	13.32
380 K, 342.4 kPa, Gas	17.25
380 K, 408.5 kPa, Gas	20.83
380 K, 492.2 kPa, Gas	25.55
380 K, 502.4 kPa, Gas	26.12
380 K, 602.7 kPa, Gas	31.98
380 K, 697.5 kPa, Gas	37.81
380 K, 703.9 kPa, Gas	38.16
380 K, 804.6 kPa, Gas	44.65
380 K, 899.8 kPa, Gas	51.1
380 K, 969.2 kPa, Gas	56.06
380 K, 1019.1 kPa, Gas	59.71
380 K, 1101.8 kPa, Gas	66.08
380 K, 1212.9 kPa, Gas	75.17
380 K, 1295.3 kPa, Gas	82.53
380 K, 1299.2 kPa, Gas	82.86
380 K, 1417.2 kPa, Gas	94.38
380 K, 1486.5 kPa, Gas	101.79
380 K, 1486.8 kPa, Gas	101.8
380 K, 1499.7 kPa, Gas	103.34
380 K, 1530.9 kPa, Gas	107.11
380 K, 1744.3 kPa, Liquid	935.88
380 K, 1763.3 kPa, Liquid	936.59
380 K, 1785 kPa, Liquid	937.35
380 K, 1807.8 kPa, Liquid	938.21
380 K, 2057.3 kPa, Liquid	946.7
380 K, 2481.3 kPa, Liquid	959.56
380 K, 2986.2 kPa, Liquid	972.71
380 K, 3036.6 kPa, Liquid	973.66
380 K, 3496.2 kPa, Liquid	984.34
380 K, 4004.9 kPa, Liquid	994.7
380 K, 4035.7 kPa, Liquid	994.89
380 K, 4514.5 kPa, Liquid	1004.14
380 K, 4998.2 kPa, Liquid	1012.37
380 K, 5093.2 kPa, Liquid	1013.21
380 K, 5510.3 kPa, Liquid	1020.45
380 K, 6032.6 kPa, Liquid	1028.11
380 K, 6103.7 kPa, Liquid	1028.48
380 K, 6514.1 kPa, Liquid	1034.76
380 K, 7011.9 kPa, Liquid	1041.19
380 K, 7127.1 kPa, Liquid	1041.96

mass density
Conditions	330 K	340 K	350 K	360 K	370 K	380 K
Gas	–	47.9 kg/m3	61.38 kg/m3	77.81 kg/m3	101.33 kg/m3	133.96 kg/m3
Liquid	1161.46 kg/m3 and 1163.08 kg/m3	1124.55 kg/m3 and 1126.1 kg/m3 and 1126.12 kg/m3	1084.74 kg/m3 and 1086.06 kg/m3	1040.97 kg/m3 and 1042.15 kg/m3 and 1042.21 kg/m3	991.98 kg/m3 and 992.32 kg/m3 and 992.42 kg/m3	934.86 kg/m3 and 935.87 kg/m3
